Measured values: patent publication US11566007B2, “Ras inhibitors” (Revolution Medicines, Inc., priority 2019, dated 2023)

How the values were obtained:
[1] = target: KRAS WT (Homo sapiens (Human), UniProt P01116+P62937); assay: Ras-Raf (BRAF RBD) disruption / FRET / MOA assay, KRAS WT; format: biochemical; details: read-out: IC50* KRAS WT FRET data
In short: (§1)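 Compound-driven ternary complex of nucleotide-loaded Ras with cyclophilin A, disrupting BRAF RBD binding. 10-point 3-fold dilution from 30 μM final, 3 h at 25° C, then anti-His Eu-W1024 (10 nM) and anti-GST allophycocyanin (50 nM) for 1.5 h. IC50 from TR-FRET ratio decrease versus DMSO.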

[2] = target: KRAS G13D (Homo sapiens (Human), UniProt P01116+P62937, G13D); assay: Ras-Raf (BRAF RBD) disruption / FRET / MOA assay, KRAS G13D; format: biochemical; details: read-out: IC50* KRAS G13D FRET data
KRAS G13D, sequence (P01116-2 other isoform, or with tags, fused parts or gaps G13D): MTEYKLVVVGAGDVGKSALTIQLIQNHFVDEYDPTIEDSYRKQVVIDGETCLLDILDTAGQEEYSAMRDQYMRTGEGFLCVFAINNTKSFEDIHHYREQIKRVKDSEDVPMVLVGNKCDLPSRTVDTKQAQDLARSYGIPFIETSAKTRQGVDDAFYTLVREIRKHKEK
KRAS G13D, sequence (P62937 whole entry): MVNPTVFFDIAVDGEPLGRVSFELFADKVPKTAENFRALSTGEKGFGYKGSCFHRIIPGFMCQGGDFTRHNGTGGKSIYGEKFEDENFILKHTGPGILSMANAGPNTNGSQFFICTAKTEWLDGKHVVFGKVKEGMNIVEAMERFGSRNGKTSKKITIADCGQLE
In short: as §1

[3] = target: KRAS G12V (Homo sapiens (Human), UniProt P01116+P62937, G12V); assay: Ras-Raf (BRAF RBD) disruption / FRET / MOA assay, KRAS G12V; format: biochemical; details: read-out: IC50* KRAS G12V FRET data
KRAS G12V, sequence (P01116-2 other isoform, or with tags, fused parts or gaps G12V): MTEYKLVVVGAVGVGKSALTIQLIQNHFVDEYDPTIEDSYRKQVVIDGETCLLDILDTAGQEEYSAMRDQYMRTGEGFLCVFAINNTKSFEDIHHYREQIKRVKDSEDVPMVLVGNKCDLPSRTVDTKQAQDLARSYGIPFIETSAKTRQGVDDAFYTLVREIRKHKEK
KRAS G12V, sequence (P62937 whole entry): as the sequence (P62937 whole entry) above
In short: as §1

[4] = tested on: NCI-H358 (K-Ras G12C); assay: CellTiter-Glo cell viability assay, NCI-H358; format: cell-based, human; details: Homo sapiens, NCI-H358, 120 h, NCI-H358, 5-day treatment; class symbols; read-out: Additional H358 Cell Viability assay data (K-Ras G12C, IC50)
In short: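 Viability of K-Ras mutant lines is measured by ATP luminescence after five days of compound treatment. Percent of DMSO control is calculated and dose-response data are fitted with a four-parameter logistic equation.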

[5] = target: K-Ras G12C (Homo sapiens (Human), UniProt P01116+P62937, G12C); assay: Ras-Raf (BRAF RBD) disruption / FRET / MOA assay, KRAS G12C; format: biochemical; details: KRAS G12C; Ras-Raf disruption/FRET/MOA assay; read-out: IC50* KRAS G12C FRET data
K-Ras G12C, sequence (P01116-2 other isoform, or with tags, fused parts or gaps G12C): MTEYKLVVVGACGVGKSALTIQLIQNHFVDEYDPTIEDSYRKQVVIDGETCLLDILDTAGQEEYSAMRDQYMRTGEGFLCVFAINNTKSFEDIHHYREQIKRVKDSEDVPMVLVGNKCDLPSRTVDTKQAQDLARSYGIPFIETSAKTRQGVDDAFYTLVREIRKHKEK
K-Ras G12C, sequence (P62937 whole entry): as the sequence (P62937 whole entry) above
In short: as §1

[6] = target: KRAS Q61H (Homo sapiens (Human), UniProt P01116+P62937, Q61H); assay: Ras-Raf (BRAF RBD) disruption / FRET / MOA assay, KRAS Q61H; format: biochemical; details: Ras-Raf disruption/FRET/MOA assay; class symbols; read-out: KRAS Q61H FRET data IC50
KRAS Q61H, sequence (P01116-2 other isoform, or with tags, fused parts or gaps Q61H): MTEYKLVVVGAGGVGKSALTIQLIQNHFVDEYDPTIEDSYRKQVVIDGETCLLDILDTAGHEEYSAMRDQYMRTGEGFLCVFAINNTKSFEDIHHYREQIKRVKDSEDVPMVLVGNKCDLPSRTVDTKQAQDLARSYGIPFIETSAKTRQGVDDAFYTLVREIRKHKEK
KRAS Q61H, sequence (P62937 whole entry): as the sequence (P62937 whole entry) above
In short: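 Compounds (30 μM top final, 10-point 3-fold dilutions) incubated 3 h at 25° C with nucleotide-loaded Ras, cyclophilin A and BRAF RBD. Detection with 10 nM anti-His Eu-W1024 and 50 nM anti-GST allophycocyanin over another 1.5 h. Lowered TR-FRET ratio relative to DMSO wells gives IC50.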

[7] = target: KRAS G12D (Homo sapiens (Human), UniProt P01116+P62937, G12D); assay: Ras-Raf (BRAF RBD) disruption / FRET / MOA assay, KRAS G12D; format: biochemical; details: Ras-Raf disruption/FRET/MOA assay; class symbols; read-out: KRAS G12D FRET data IC50
KRAS G12D, sequence (P01116-2 other isoform, or with tags, fused parts or gaps G12D): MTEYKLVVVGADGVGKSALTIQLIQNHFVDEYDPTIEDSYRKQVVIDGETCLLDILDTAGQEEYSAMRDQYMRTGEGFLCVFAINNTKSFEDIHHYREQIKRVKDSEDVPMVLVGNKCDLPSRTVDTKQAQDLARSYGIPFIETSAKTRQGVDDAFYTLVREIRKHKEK
KRAS G12D, sequence (P62937 whole entry): as the sequence (P62937 whole entry) above
In short: as §1

KRAS WT, sequence (P01116-2 other isoform, or with tags, fused parts or gaps): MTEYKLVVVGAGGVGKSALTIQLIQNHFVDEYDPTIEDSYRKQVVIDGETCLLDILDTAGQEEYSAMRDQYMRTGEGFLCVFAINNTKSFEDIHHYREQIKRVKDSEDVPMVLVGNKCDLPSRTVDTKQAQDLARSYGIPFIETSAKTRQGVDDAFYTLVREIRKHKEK
KRAS WT, sequence (P62937 whole entry): as the sequence (P62937 whole entry) above

| SMILES | IC50 [1] | IC50 [2] | IC50 [3] | IC50 [4] | IC50 [5] | IC50 [6] | IC50 [7] |
| --- | --- | --- | --- | --- | --- | --- | --- |
| C=CC(=O)N1CC[C@]2(C1)OCN([C@H](C(=O)N[C@H]1Cc3cccc(n3)-c3ccc4c(c3)c(c(-c3cccnc3[C@H](C)OC)n4CC)CC(C)(C)COC(=O)[C@@H]3CCCN(N3)C1=O)C(C)C)C2=O (atropisomer, axis not shown) [Example A652] | 1 to 10 µM | 1 to 10 µM | 1 to 10 µM | 0.1 to 1 µM | 0.1 to 1 µM | 1 to 10 µM | > 10 µM |
| CCn1c(-c2cccnc2[C@H](C)OC)c2c3cc(ccc31)-c1cc(CF)cc(c1)C[C@H](NC(=O)[C@H](C(C)C)N(C)C(=O)[C@H]1CCN(C(=O)C#CC(C)(C)N(C)C)C1)C(=O)N1CCC[C@H](N1)C(=O)OCC(C)(C)C2 (atropisomer, axis not shown) [Example A658] | 1 to 10 µM | 1 to 10 µM | 1 to 10 µM | < 0.01 µM | < 0.01 µM | 1 to 10 µM | 1 to 10 µM |
| C=CC(=O)N1CC2(CCCN2C(=O)N(C)[C@H](C(=O)N[C@H]2Cc3nc(cs3)-c3ccc4c(c3)c(c(-c3cccnc3[C@H](C)OC)n4CC)CC(C)(C)COC(=O)[C@@H]3CCCN(N3)C2=O)C(C)C)C1 (atropisomer, axis not shown) [Example A667] | 0.01 to 0.1 µM | 0.1 to 1 µM | 0.1 to 1 µM | < 0.01 µM | < 0.01 µM | 0.01 to 0.1 µM | 0.1 to 1 µM |
| CCn1c(-c2cccnc2[C@H](C)OC)c2c3cc(ccc31)-c1cc(CF)cc(c1)C[C@H](NC(=O)[C@H](C(C)C)N1CC[C@]3(CCN(C(=O)C#CC(C)(C)N(C)C)C3)C1=O)C(=O)N1CCC[C@H](N1)C(=O)OCC(C)(C)C2 (atropisomer, axis not shown) [Example A673] | 1 to 10 µM | 1 to 10 µM | 0.1 to 1 µM | < 0.01 µM | < 0.01 µM | 0.1 to 1 µM | 1 to 10 µM |
| CCn1c(-c2cccnc2[C@H](C)OC)c2c3cc(ccc31)-c1cccc(c1)C[C@H](NC(=O)[C@H](C(C)C)N(C)C(=O)C1(F)CCN(C(=O)/C=C/CN(C)C)CC1)C(=O)N1CCC[C@H](N1)C(=O)OCC(C)(C)C2 (atropisomer, axis not shown) [Example A685] | 0.1 to 1 µM | 0.1 to 1 µM | 0.1 to 1 µM | < 0.01 µM | 0.01 to 0.1 µM | 0.1 to 1 µM | 0.1 to 1 µM |
| CO[C@@H](C)c1ncccc1-c1c2c3cc(ccc3n1CC(F)(F)F)-c1cccc(c1)C[C@H](NC(=O)[C@H](C(C)C)N1CC[C@]3(CCN(C(=O)C#CC(C)(C)N(C)C)C3)C1=O)C(=O)N1CCC[C@H](N1)C(=O)OCC(C)(C)C2 (atropisomer, axis not shown) [Example A689] | 1 to 10 µM | 1 to 10 µM | 1 to 10 µM | < 0.01 µM | < 0.01 µM | 0.1 to 1 µM | 1 to 10 µM |
| CCn1c(-c2cccnc2[C@H](C)OC)c2c3cc(ccc31)-c1csc(n1)C[C@H](NC(=O)[C@H](C(C)C)N(C)C(=O)N(C)C1CN(C(=O)/C=C/C3CN(C)C3)C1)C(=O)N1CCC[C@H](N1)C(=O)OCC(C)(C)C2 (atropisomer, axis not shown) [Example A690] | 0.1 to 1 µM | 0.1 to 1 µM | 1 to 10 µM | 0.1 to 1 µM | 0.1 to 1 µM | 0.1 to 1 µM | 1 to 10 µM |
| CO[C@@H](C)c1ncccc1-c1c2c3cc(ccc3n1CC(F)(F)F)-c1cccc(c1)C[C@H](NC(=O)[C@@H](COC1CN(C(=O)C#CC3(C)OCCO3)C1)C(C)C)C(=O)N1CCC[C@H](N1)C(=O)OCC(C)(C)C2 (atropisomer, axis not shown) [Example A703] | 1 to 10 µM | > 10 µM | 1 to 10 µM | 0.01 to 0.1 µM | 0.01 to 0.1 µM | 1 to 10 µM | > 10 µM |
| C=CC(=O)N1CC(N(C)C(=O)N(C)[C@H](C(=O)N[C@H]2Cc3nc(cs3)-c3ccc4c(c3)c(c(-c3cccnc3[C@H](C)OC)n4CC(F)(F)F)CC(C)(C)COC(=O)[C@@H]3CCCN(N3)C2=O)C(C)C)C1 (atropisomer, axis not shown) [Example A711] | 0.01 to 0.1 µM | 0.1 to 1 µM | 0.1 to 1 µM | < 0.01 µM | < 0.01 µM | 0.01 to 0.1 µM | 0.1 to 1 µM |
| CCn1c(-c2cccnc2[C@H](C)OC)c2c3cc(ccc31)-c1csc(n1)C[C@H](NC(=O)[C@@H](COC1CN(C(=O)C#CC(C)(C)N(C)C)C1)C(C)C)C(=O)N1CCC[C@H](N1)C(=O)OCC(C)(C)C2 (atropisomer, axis not shown) [Example A721] | > 10 µM | > 10 µM | 1 to 10 µM | < 0.01 µM | < 0.01 µM | 1 to 10 µM | > 10 µM |
| CO[C@@H](C)c1ncccc1-c1c2c3cc(ccc3n1CC(F)(F)F)-c1cccc(c1)C[C@H](NC(=O)[C@H](C(C)C)N(C)C(=O)[C@H]1CCN(C(=O)C#CC(C)(C)N(C)C)C1)C(=O)N1CCC[C@H](N1)C(=O)OCC(C)(C)C2 (atropisomer, axis not shown) [Example A727] | 1 to 10 µM | 1 to 10 µM | 1 to 10 µM | < 0.01 µM | < 0.01 µM | 1 to 10 µM | 1 to 10 µM |
| CCn1c(-c2cccnc2)c2c3cc(ccc31)-c1csc(c1)C[C@H](NC(=O)[C@H](C(C)C)N(C)C(=O)[C@H]1CCN(C(=O)C#CCN3CCOCC3)C1)C(=O)N1CCC[C@H](N1)C(=O)OCC(C)(C)C2 [Example A205] | > 10 µM | > 10 µM | > 10 µM | 0.1 to 1 µM | 0.1 to 1 µM | > 10 µM | > 10 µM |
| C=CC(=O)N1CC[C@H](C(=O)N(C)[C@H](C(=O)N[C@H]2C[C@H]3CN(CCO3)c3ccc4c(c3)c(c(-c3cccnc3COC)n4CC)CC(C)(C)COC(=O)[C@@H]3CCCN(N3)C2=O)C(C)C)C1 [Example A240] | > 10 µM | > 10 µM | > 10 µM | > 1 µM | 1 to 10 µM | > 10 µM | > 10 µM |
| CCn1c(-c2cccnc2[C@H](C)OC)c2c3cc(ccc31)N1CCO[C@@](C)(C[C@H](NC(=O)[C@H](C(C)C)N(C)C(=O)C3(F)CCN(C(=O)C#CC(C)(C)N(C)C)CC3)C(=O)N3CCC[C@H](N3)C(=O)OCC(C)(C)C2)C1 [Example A550] | 0.1 to 1 µM | 1 to 10 µM | 0.1 to 1 µM | < 0.01 µM | < 0.01 µM | 1 to 10 µM | 1 to 10 µM |
| C=CC(=O)N1CCO[C@H]2CN(C(=O)N(C)[C@H](C(=O)N[C@H]3C[C@H]4CN(CCO4)c4ccc5c(c4)c(c(-c4cccnc4[C@H](C)OC)n5CC)CC(C)(C)COC(=O)[C@@H]4CCCN(N4)C3=O)C(C)C)C[C@H]21 [Example A562] | 1 to 10 µM | 1 to 10 µM | 1 to 10 µM | 0.1 to 1 µM | 0.1 to 1 µM | 1 to 10 µM | 1 to 10 µM |
